Source: patent US7960569B2, “Indole antagonists of P2Y1 receptor useful in the treatment of thrombotic conditions” (Bristol-Myers Squibb Company, priority 2006, dated 2011)
Where a name gives a salt, the structure may show the parent alone.

These compounds were tested against T1, cloned human P2Y1 receptors (Homo sapiens, UniProt P47900) (assay: Binding Assay A: membrane binding assay, inhibition of [33P] 2MeS-ADP binding (WGA FlashPlates)).
T1 construct: expressed in transfected cells
Text: A membrane binding assay was used to identify inhibitors of [^33P] […] The cDNA clone for human P2Y1 was obtained from Incyte Pharmaceuticals and its sequence confirmed by established techniques (for a compendium of techniques used see Ausubel, F. et al. Current Protocols in Molecular Biology 1995 John Wiley and Sons, NY, N.Y.). The essential coding sequences were subcloned into pcDNA 3.1 (Invitrogen) to produce a P2Y1 expression construct. This construct was then transfected into the human embryonic kidney cell line HEK-293 and stable transfectants selected in Genetcin® (G418 sulfate; Life Technologies). […] Membranes were prepared by growing HEK293 #49 in 150 mm dishes in DMEM/10% FBS in the presence of 1 mg/ml G418 until cells were 80-90% confluent. Plates were then washed with cold (4° C.) D-PBS twice and cells harvested by scraping into 10 mL D-PBS. Cells were pelleted by centrifugation (1,000 g, 10 min, 4° C.) and the resulting pellet resuspended in Lysis Buffer (10 mM Tris (7.4), 5 mM MgCl2 containing Complete® protease inhibitor cocktail (Roche Cat #1873580) as recommended by the manufacturer). The suspension was then homogenized in a Dounce homogenizer (10-15 strokes; B pestle, on ice) and the homogenate spun at 1,000 g, 4° C., 5 min to pellet large debris. The supernatant was centrifuged at 150,000 g, 4° C., for 1 hour and the resulting membrane pellet resuspended in 0.5-1 mL of Buffer B (15 mM HEPES (7.4), 145 mM NaCl, 0.1 mM MgCl2, 5 mM EDTA, 5 mM KCl) and stored at −70° C. until used.
Binding reactions were performed in WGA FlashPlates (PerkinElmer Life Sciences, Cat # SMP105A) in a volume of 200 μL containing ˜45 fmol of P2Y1 receptor (5 μg of total protein), 0.5 nM [^33P] […] Reactions were allowed to proceed to completion at room temperature for 1 hour and then the aqueous solution aspirated. Plates were sealed and the residual [^33P] bound to the plate determined by scintillation counting.

T1 sequence (P47900 whole entry): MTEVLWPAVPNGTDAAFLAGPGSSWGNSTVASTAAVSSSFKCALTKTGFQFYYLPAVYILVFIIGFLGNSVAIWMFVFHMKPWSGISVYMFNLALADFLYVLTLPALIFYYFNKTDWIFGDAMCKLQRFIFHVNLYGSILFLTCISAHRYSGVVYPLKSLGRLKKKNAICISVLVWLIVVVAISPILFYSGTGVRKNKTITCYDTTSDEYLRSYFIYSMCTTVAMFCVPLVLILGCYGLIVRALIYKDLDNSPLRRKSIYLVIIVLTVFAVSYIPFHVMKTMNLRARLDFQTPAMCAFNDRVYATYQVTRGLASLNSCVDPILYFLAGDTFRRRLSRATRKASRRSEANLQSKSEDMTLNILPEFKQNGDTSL

| SMILES | Ki [nM] |
| --- | --- |
| CN(C)Cc1ccccc1-c1cn(C(=O)Nc2ccc(OC(F)(F)F)cc2)c2ccccc12 [Example 33, 3-(2-((dimethylamino)methyl)phenyl)-N-(4-(trifluoromethoxy)phenyl)-1H-indole-1-carboxamide bis(2,2,2-trifluoroacetic acid) salt] | 1300 |
| CC(C)c1ccccc1-c1cn(C(=O)Nc2ccc(-c3ccccc3)cc2)c2ccccc12 [Example 27, N-(biphenyl-4-yl)-3-(2-isopropylphenyl)-1H-indole-1-carboxamide] | 144 |
| CC(C)c1ccccc1-c1cn(C(=O)Nc2ccc(N(C)C)cc2)c2ccccc12 [Example 12, N-(4-(dimethylamino)phenyl)-3-(2-isopropylphenyl)-1H-indole-1-carboxamide 2,2,2-trifluoroacetic acid salt] | 117 |
| CC(C)c1ccccc1-c1cn(C(=O)Nc2ccccc2)c2ccccc12 [Example 1, 3-(2-isopropylphenyl)-N-phenyl-1H-indole-1-carboxamide] | 75 |

More lines, in order of falling Ki, values ahead:

| Ki [nM] | SMILES |
| --- | --- |
| 1210 | CC(C)c1ccccc1-n1cc(C(=O)Nc2ccc(N3CCOCC3)cc2)c2ccccc21 [Example 53, 1-(2-isopropylphenyl)-N-(4-morpholinophenyl)-1H-indole-3-carboxamide 2,2,2-trifluoroacetic acid salt] |
| 96 | CC(C)c1ccccc1-c1cn(C(=O)Nc2ccc(I)cc2)c2ccccc12 [Example 40, N-(4-iodophenyl)-3-(2-isopropylphenyl)-1H-indole-1-carboxamide] |
